This assay concerns the target T1, Musashi-1 (MSI1) (Mus musculus, UniProt Q61474).
T1 sequence (Q61474 20-107): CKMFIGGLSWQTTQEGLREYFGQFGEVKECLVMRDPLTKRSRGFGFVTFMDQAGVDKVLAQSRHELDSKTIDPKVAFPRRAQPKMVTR
Nature of the assay: SPR on immobilized GB1-RBD1, 1H-15N HSQC NMR titration. It counts as binding.

On to `Cc1cc2c(C(C)C)c(O)c(O)c(C=O)c2c(O)c1-c1c(C)cc2c(C(C)C)c(O)c(O)c(C=O)c2c1O` [(–)-G, (–)-gossypol], for which the Ki was 476 ± 273 nM.
